Details: 100 kPa, Liquid; for speed of sound: Frequency=3 MHz, Single path-length method; for mass density: Vibrating tube method; for viscosity: Capillary tube (Ostwald / Ubbelohde) method

C=CCn1cc[n+](C)c1.O=S(=O)([N-]S(=O)(=O)C(F)(F)F)C(F)(F)F
Details	mass density [kg/m3]	speed of sound [m/s]	viscosity [mPa·s]
278.15 K	1520.13	1286.6	–
283.15 K	1514.97	1274.9	–
288.15 K	1509.81	1263.1	–
293.15 K	1504.69	1251.6	41.83
298.15 K	–	1240.2	–
303.15 K	1494.52	1228.9	28.51
308.15 K	1489.48	1217.8	23.96
313.15 K	1484.45	1206.8	20.41
318.15 K	1479.44	1196	17.51
323.15 K	1474.45	1185.2	15.19
328.15 K	1469.5	1174.7	13.23
333.15 K	1464.56	1164.2	11.62
338.15 K	1459.65	1153.8	10.28
343.15 K	1454.75	1143.5	9.125

CCCC[N+]1(C)CCCC1.O=S(=O)([N-]S(=O)(=O)C(F)(F)F)C(F)(F)F
Details	mass density [kg/m3]	speed of sound [m/s]	viscosity [mPa·s]
278.15 K	1412.33	1316.3	–
283.15 K	1407.79	1304.4	–
288.15 K	1403.28	1292.5	–
293.15 K	1398.78	1280.8	97.14
298.15 K	1394.32	1269.4	76.54
303.15 K	1389.87	1258.2	61.31
308.15 K	1385.44	1247.1	49.84
313.15 K	1381.05	1236.1	41.08
318.15 K	1376.66	1225.3	34.3
323.15 K	1372.3	1214.6	28.98
328.15 K	1367.94	1204.1	24.76
333.15 K	1363.6	1193.6	20.74
338.15 K	1359.28	1183.2	18.03
343.15 K	1354.98	1173	15.8

O=S(=O)([N-]S(=O)(=O)C(F)(F)F)C(F)(F)F.On1cc[n+](O)c1 [1,3-dihydroxyimidazolium bis(trifluoromethylsulfonyl)imide]
Details	mass density [kg/m3]	speed of sound [m/s]	viscosity [mPa·s]
293.15 K	1746.4	1208.2	238.6
298.15 K	1740.44	1196.6	171.83
303.15 K	1734.52	1185.2	127.52
308.15 K	1728.64	1174.1	96.92
313.15 K	1722.79	1163.1	75.56
318.15 K	1716.97	1152.3	59.8
323.15 K	1711.19	1141.6	48.29
328.15 K	1705.44	1131.1	39.57
333.15 K	1699.71	1120.7	32.88
338.15 K	1694.01	1110.4	27.69
343.15 K	1688.34	1100.2	23.59

CCCO [propan-1-ol]
Details	mass density [kg/m3]	speed of sound [m/s]	viscosity [mPa·s]
278.15 K	815.52	1276	–
283.15 K	811.6	1258.7	–
288.15 K	807.63	1241.1	–
293.15 K	803.65	1223.8	2.14
298.15 K	799.65	1206.5	1.897
303.15 K	795.61	1189.4	1.688
308.15 K	791.54	1172.4	1.506
313.15 K	787.43	1155.5	1.348
318.15 K	783.27	1138.7	1.211
323.15 K	779.05	1121.9	1.09
328.15 K	774.79	1105.2	0.985
333.15 K	770.44	1088.3	0.892
338.15 K	766.03	1071.5	0.81
343.15 K	761.53	1054.5	0.737

Source: the NIST ThermoML archive (doi:10.1021/acs.jced.8b00537)
